Laboratory results as given in patent publication US9884063B2, “Amido-substituted azole compounds” (Bayer Pharma Aktiengesellschaft, priority 2014, dated 2018).

Target: T1, TNKS1 (Homo sapiens, UniProt O95271)
T1 sequence (O95271 1-1327): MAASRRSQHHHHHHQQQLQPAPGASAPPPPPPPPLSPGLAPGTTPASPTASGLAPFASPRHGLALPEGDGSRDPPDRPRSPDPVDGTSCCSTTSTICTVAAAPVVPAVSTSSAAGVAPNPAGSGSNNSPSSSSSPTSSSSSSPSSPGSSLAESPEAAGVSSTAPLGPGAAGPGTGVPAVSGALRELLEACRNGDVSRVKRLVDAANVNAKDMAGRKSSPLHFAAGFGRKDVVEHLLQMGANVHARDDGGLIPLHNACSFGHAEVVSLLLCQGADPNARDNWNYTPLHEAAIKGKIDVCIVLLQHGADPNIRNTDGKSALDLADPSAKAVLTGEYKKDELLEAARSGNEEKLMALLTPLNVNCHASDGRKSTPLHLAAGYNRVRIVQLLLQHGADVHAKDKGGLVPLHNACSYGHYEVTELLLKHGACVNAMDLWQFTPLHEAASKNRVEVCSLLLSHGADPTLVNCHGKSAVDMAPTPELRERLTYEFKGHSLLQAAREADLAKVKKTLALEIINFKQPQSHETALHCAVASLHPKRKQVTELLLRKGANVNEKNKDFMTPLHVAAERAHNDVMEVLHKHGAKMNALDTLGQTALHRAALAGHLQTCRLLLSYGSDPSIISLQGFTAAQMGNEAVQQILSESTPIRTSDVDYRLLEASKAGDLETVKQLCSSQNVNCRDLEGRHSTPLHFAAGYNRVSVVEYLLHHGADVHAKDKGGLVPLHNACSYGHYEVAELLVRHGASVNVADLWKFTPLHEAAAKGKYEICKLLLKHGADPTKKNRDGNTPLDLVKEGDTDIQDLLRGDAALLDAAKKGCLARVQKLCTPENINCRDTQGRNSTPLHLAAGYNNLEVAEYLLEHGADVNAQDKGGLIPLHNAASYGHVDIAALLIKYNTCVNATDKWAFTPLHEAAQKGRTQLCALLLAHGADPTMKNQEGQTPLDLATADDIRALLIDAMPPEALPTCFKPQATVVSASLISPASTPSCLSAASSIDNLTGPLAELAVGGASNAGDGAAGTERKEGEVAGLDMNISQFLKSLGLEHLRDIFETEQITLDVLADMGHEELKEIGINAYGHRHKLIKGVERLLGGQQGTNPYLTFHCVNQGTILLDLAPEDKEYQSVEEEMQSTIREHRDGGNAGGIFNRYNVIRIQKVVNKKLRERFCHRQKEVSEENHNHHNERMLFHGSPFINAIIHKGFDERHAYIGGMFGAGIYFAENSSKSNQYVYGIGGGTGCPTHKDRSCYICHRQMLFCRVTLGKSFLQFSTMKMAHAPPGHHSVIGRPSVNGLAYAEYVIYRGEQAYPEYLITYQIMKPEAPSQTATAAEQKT
Assay: Modified TNKS1 Assay 2 (auto-parsylation, [3H]-NAD+ SPA)
Type: biochemical
Settings: 6 nM TNKS1, 96 well

`COC(=O)c1nc[nH]c1C(=O)Nc1ccc(NC(=O)c2ccccc2Cl)c(C)c1` [Example 86, methyl-5-({4-[(2-chlorobenzoyl)amino]-3-methylphenyl}carbamoyl)-1H-imidazole-4-carboxylate] showed an IC50 of 2600 nM.
Work on `Cc1cc(NC(=O)c2[nH]cnc2C(=O)NCCN2CCCCC2)ccc1NC(=O)c1ccccc1Cl` [Example 89, N^5-{4-[(2-chlorobenzoyl)amino]-3-methylphenyl}-N^4-[2-(piperidin-1-yl)ethyl]-1H-imidazole-4,5-dicarboxamide] yielded an IC50 of 30 nM.
In the case of `COC(=O)c1nc[nH]c1C(=O)Nc1ccc(NC(=O)c2ccc(F)cc2Cl)c(OC)c1` [Example 94, methyl 5-({4-[(2-chloro-4-fluorobenzoyl)amino]-3-methoxyphenyl}carbamoyl)-1H-imidazole-4-carboxylate], the IC50 is reported as 440 nM.
`CNC(=O)c1nc[nH]c1C(=O)Nc1ccc(NC(=O)c2ccc(F)cc2Cl)c(OC)c1` [Example 95, N^5-{4-[(2-chloro-4-fluorobenzoyl)amino]-3-methoxyphenyl}-N^4-methyl-1H-imidazole-4,5-dicarboxamide] showed an IC50 of 80 nM.
Compound `COc1cc(NC(=O)c2[nH]cnc2C(=O)NCCN(C)C)ccc1NC(=O)c1ccc(F)cc1Cl` [Example 96, N^5-{4-[(2-chloro-4-fluorobenzoyl)amino]-3-methoxyphenyl}-N^4-[2-(dimethylamino)ethyl]-1H-imidazole-4,5-dicarboxamide] has an IC50 of 30 nM.
Work on `COc1cc(NC(=O)c2[nH]cnc2C(=O)NCCN2CCCCC2)ccc1NC(=O)c1ccc(F)cc1Cl` [Example 97, N^5-{4-[(2-chloro-4-fluorobenzoyl)amino]-3-methoxyphenyl}-N^4-[2-(piperidin-1-yl)ethyl]-1H-imidazole-4,5-dicarboxamide] yielded an IC50 of 60 nM.
`COC(=O)c1nc[nH]c1C(=O)Nc1ccc(NC(=O)c2ccccc2Cl)c(OC)c1` [Example 98, methyl 5-({4-[(2-chlorobenzoyl)amino]-3-methoxyphenyl}carbamoyl)-1H-imidazole-4-carboxylate] showed an IC50 of 340 nM.
With `COc1cc(NC(=O)c2[nH]cnc2C(=O)NCCN(C)C)ccc1NC(=O)c1ccccc1Cl` [Example 100, N^5-{4-[(2-chlorobenzoyl)amino]-3-methoxyphenyl}-N^4-[2-(dimethylamino)ethyl]-1H-imidazole-4,5-dicarboxamide] the IC50 was 50 nM.
Compound `COC(=O)c1nc[nH]c1C(=O)Nc1ccc(NC(=O)c2ccc(F)cc2)c(OC)c1` [Example 102, methyl 5-({4-[(4-fluorobenzoyl)amino]-3-methoxyphenyl}carbamoyl)-1H-imidazole-4-carboxylate] has an IC50 greater than 10000 nM.
For `CNC(=O)c1[nH]c(C(C)C)nc1C(=O)Nc1ccc(NC(=O)c2ccc(F)cc2Cl)cc1` [Example 106, N^4-{4-[(2-chloro-4-fluorobenzoyl)amino]phenyl}-2-isopropyl-N^5-methyl-1H-imidazole-4,5-dicarboxamide], the IC50 was greater than 10000 nM.
Compound `CNC(=O)c1nc[nH]c1C(=O)Nc1ccc(NC(=O)c2ccccc2Cl)nc1` [Example 112, N^5-{6-[(2-chlorobenzoyl)amino]pyridin-3-yl}-N^4-methyl-1H-imidazole-4,5-dicarboxamide] has an IC50 of 250 nM.
`CN(C)CCNC(=O)c1nc[nH]c1C(=O)Nc1ccc(NC(=O)c2ccccc2Cl)nc1` [Example 113, N^5-{6-[(2-chlorobenzoyl)amino]pyridin-3-yl}-N^4-[2-(dimethylamino)ethyl]-1H-imidazole-4,5-dicarboxamide] gave an IC50 of 20 nM.
